In series [1] the target is T1, full-length human Cal1 (Homo sapiens (Human), UniProt P07384). Briefly: Calpain inhibition FRET assay. The format is biochemical.
A further series relates to Cal1cat vs CathB. Put plainly: Competition assay for Cal1 vs CathB using the biotinylated epoxide probe. The format is binding, rat.
Another series deals with Aβ40 and Aβ42. Briefly: Effect on Aβ levels in APP/PS1 mice. Format: in vivo. The settings on record: compound-treated vs vehicle-treated APP/PS1 transgenics. The source says: Increase of brain and plasma levels of Aβ and appearance of amyloid plaques is an important feature of AD.
Another series relates to APP/PS1 mice. Put plainly: Behavioral rescue assays (contextual fear memory, 2-day RAWM reference memory). The format is in vivo.
Series [2] relates to calpain-generated spectrin fragments. Briefly: Spectrin proteolytic degradation products in hippocampi, western blot. The format is in vivo. The procedure: Studies were performed to determine capability of lowering levels of spectrin proteolytic degradation products in hippocampi from adult animals. Using western blot analysis, prevention of calpain-generated spectrin fragments was checked following i.p. treatment for 12 days with 30a, 33 and 50 at the same concentrations used for PK assessment. The array of vehicle samples was obtained by loading samples with 5, 10, 15, and 20 μg total protein/lane. Samples from compound treated animals were loaded at 15 μg/lane.

The target of series [3] is T1, full-length human Cal1. Briefly: Calpain inhibition FRET assay. Format: biochemical. The settings on record: Table 3, 20 min incubation, FRET substrate.
Where [4] appears, read: APP/PS1 mice, daily treatment from 2 until 7 months.

Where two headings read alike, the source gives them in different places.

T1 sequence (P07384 whole entry): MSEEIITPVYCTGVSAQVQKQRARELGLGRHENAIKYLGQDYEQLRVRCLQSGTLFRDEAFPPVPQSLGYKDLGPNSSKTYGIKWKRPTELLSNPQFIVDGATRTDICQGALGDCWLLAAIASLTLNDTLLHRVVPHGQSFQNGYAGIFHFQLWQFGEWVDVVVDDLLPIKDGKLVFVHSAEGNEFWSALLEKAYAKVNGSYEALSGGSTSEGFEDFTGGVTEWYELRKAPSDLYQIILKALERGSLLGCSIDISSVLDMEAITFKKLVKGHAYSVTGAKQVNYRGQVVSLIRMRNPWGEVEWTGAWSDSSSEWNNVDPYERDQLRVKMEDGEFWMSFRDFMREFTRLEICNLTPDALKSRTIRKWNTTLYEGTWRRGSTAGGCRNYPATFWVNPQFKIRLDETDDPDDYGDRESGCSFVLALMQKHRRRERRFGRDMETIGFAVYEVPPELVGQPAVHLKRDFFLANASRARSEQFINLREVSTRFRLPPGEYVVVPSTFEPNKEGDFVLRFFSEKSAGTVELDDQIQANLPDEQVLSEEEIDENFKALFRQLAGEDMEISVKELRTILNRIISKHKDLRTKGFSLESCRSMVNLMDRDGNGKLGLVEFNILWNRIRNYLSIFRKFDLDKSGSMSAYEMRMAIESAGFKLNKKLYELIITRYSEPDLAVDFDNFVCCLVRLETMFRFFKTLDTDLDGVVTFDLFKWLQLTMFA
T1 sequence (P04632 whole entry partner): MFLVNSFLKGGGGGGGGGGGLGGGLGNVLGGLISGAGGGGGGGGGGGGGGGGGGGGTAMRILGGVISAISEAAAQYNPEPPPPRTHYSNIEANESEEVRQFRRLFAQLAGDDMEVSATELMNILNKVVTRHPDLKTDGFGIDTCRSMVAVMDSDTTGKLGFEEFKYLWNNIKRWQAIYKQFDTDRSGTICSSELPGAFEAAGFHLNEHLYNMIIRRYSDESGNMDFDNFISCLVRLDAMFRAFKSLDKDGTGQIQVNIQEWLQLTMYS

`O=C(O)C1OC1C(=O)N[C@@H](Cc1cscn1)C(=O)Nc1nc(-c2ccc(F)cc2)cs1` (stereo in doubt) [Compound 33, (2S,3S)-3-((S)-1-(4-(4-fluorophenyl)thiazol-2-ylamino)-1-oxo-3-(thiazol-4-yl)propan-2-ylcarbamoyl)oxirane-2-carboxylic acid]: the IC50 was around 100 nM on full-length human Cal1 [1] (Cal1, values stated in text, read-out: IC50); 100 nM at full-length human Cal1 [1] (Table 2, approximate IC50, read-out: Cal I IC50); 100 nM at full-length human Cal1 [3]. Further, the “blocking of active site modification by probe 27 (western blot signal)” value in the series on Cal1cat vs CathB (10 min pre-treatment, then 20 min with 27) was “little change in the CathB signal”. The “selectivity for Cal1cat (ratio of Cal1cat versus CathB band intensities)” value in the series on Cal1cat vs CathB (ratio for probe 27 alone set as 1.0, inhibitor 5 μM) is “highest selectivity”. Also, the “Aβ40 and Aβ42 levels in hippocampi” value in the series with Aβ40 and Aβ42 is “no difference was detected”. The reference memory entry is “beneficial” in the series with APP/PS1 mice (3 month old APP/PS1 mice, 2-day RAWM, daily from 2 months) and “ameliorated” in the series with APP/PS1 mice (setting [4]). Further, the contextual fear memory result with APP/PS1 mice (3 month old APP/PS1 mice, daily i.p. from 2 months) is reported as “beneficial”; in the series with APP/PS1 mice (setting [4]), “ameliorated”. In addition, the memory impairment result with APP/PS1 mice (7 month old APP/PS1 mice, chronic administration) was “beneficial”. Further, the “prevention of spectrin cleavage by calpains in hippocampi” value in series [2] (i.p. treatment for 12 days, doses as for PK) is “dramatically reduced the amount of fragments”. Moreover, the brain penetration result in series [2] (inferred from hippocampal spectrin cleavage) was “capable of effectively penetrating the brain”.

(Values after patent US9403843B2, “Cysteine protease inhibitors and uses thereof” (The Trustees of Columbia University in the City of New York, priority 2012, dated 2016).)
